pEC50: −log10 of the molar value. The source made the active and inactive calls. No cut-off for these calls is given here.
Key:
[1] = system: Calvarial osteoblast; assay: Induction of osteoblast differentiation in rat calvarial osteoblast assessed as increase in ALP activity using PNPP as substrate measured after 48 hrs; format: functional, cell-based; settings: for pEC50: Rattus norvegicus, Calvarial osteoblast, 48 h
[2] = system: Calvarial osteoblast; assay: Cytotoxicity against rat calvarial osteoblast assessed as effect on cell viability at 0.000001 to 100 uM after 48 hrs by MTT assay; format: cell-based
[3] = system: Calvarial osteoblast; assay: Induction of mineralization in rat calvarial osteoblast at 1 pM supplemented with fresh medium containing compounds every 48 hrs for 21 days by alizarin red-S staining based assay; format: functional, cell-based
[4] = system: Calvarial osteoblast; assay: Induction of osteoblast differentiation in rat calvarial osteoblast assessed as increase in Runx2 mRNA expression at 1 pM after 48 hrs by SYBR green dye based qRT-PCR analysis relative to control; format: functional
[5] = system: Calvarial osteoblast; assay: Induction of osteoblast differentiation in rat calvarial osteoblast assessed as increase in BMP2 mRNA expression at 1 to 100 pM after 48 hrs by SYBR green dye based qRT-PCR analysis relative to control; format: functional
[6] = system: Calvarial osteoblast; assay: Induction of osteoblast differentiation in rat calvarial osteoblast assessed as increase in COL1 mRNA expression at 1 pM after 48 hrs by SYBR green dye based qRT-PCR analysis; format: functional, cell-based
[7] = system: Rattus norvegicus; assay: In vivo induction of osteogenesis in rat assessed as increase in BMP2 mRNA expression at 2.5 mg/kg, sc administered daily for 5 days by qRT-PCR analysis; format: functional, organism-based
[8] = system: Rattus norvegicus; assay: In vivo induction of osteogenesis in rat assessed as increase in COL1 mRNA expression at 2.5 mg/kg, sc administered daily for 5 days by qRT-PCR analysis; format: functional, organism-based
[9] = system: Rattus norvegicus; assay: In vivo induction of osteogenesis in rat assessed as increase in OCN mRNA expression at 5 mg/kg, sc administered daily for 5 days by qRT-PCR analysis; format: functional, organism-based
[10] = system: Rattus norvegicus; assay: In vivo induction of osteogenesis in rat assessed as increase in BMP2 mRNA expression at 10 mg/kg, sc administered daily for 5 days by qRT-PCR analysis; format: functional, organism-based
[11] = system: Rattus norvegicus; assay: In vivo induction of osteogenesis in rat assessed as increase in COL1 mRNA expression at 10 mg/kg, sc administered daily for 5 days by qRT-PCR analysis; format: functional, organism-based
[12] = system: Rattus norvegicus; assay: In vivo induction of osteogenesis in rat assessed as increase in OCN mRNA expression at 10 mg/kg, sc administered daily for 5 days by qRT-PCR analysis; format: functional, organism-based
[13] = system: Calvarial osteoblast; assay: Induction of mineralization in rat calvarial osteoblast at 1 uM supplemented with fresh medium containing compounds every 48 hrs for 21 days by alizarin red-S staining based assay; format: functional, cell-based
[14] = system: Calvarial osteoblast; assay: Induction of osteoblast differentiation in rat calvarial osteoblast assessed as increase in BMP2 mRNA expression at 0.01 to 1 uM after 48 hrs by SYBR green dye based qRT-PCR analysis relative to control; format: functional
[15] = system: Calvarial osteoblast; assay: Induction of mineralization in rat calvarial osteoblast at 10 nM supplemented with fresh medium containing compounds every 48 hrs for 21 days by alizarin red-S staining based assay; format: functional, cell-based
[16] = system: Calvarial osteoblast; assay: Induction of osteoblast differentiation in rat calvarial osteoblast assessed as increase in BMP2 mRNA expression at 0.1 to 10 nM after 48 hrs by SYBR green dye based qRT-PCR analysis relative to control; format: functional

| Compound | concentration of maximal effect [1] | pEC50 [1] | Activity [2] | Activity [3] | fold change (FC) [4] | fold change (FC) [5] | Activity [6] | Activity [7] | Activity [8] | Activity [9] | Activity [10] | Activity [11] | Activity [12] | Activity [13] | fold change (FC) [14] | Activity [15] | fold change (FC) [16] |
| --- | --- | --- | --- | --- | --- | --- | --- | --- | --- | --- | --- | --- | --- | --- | --- | --- | --- |
| Cc1cc(C2C3=C(CCCC3=O)OC3=C2C(=O)CCC3)cc2cc(C(=O)c3ccc(F)cc3)oc12 | 1 pM | 12.09 | Non-Toxic | Active | 2 | 2.5 | Active | Active | Active | Active | Active | Active | Active |  |  |  |  |
| CCc1cc(C2C3=C(CC(C)(C)CC3=O)OC3=C2C(=O)CC(C)(C)C3)cc2cc(C(=O)c3ccc(F)cc3)oc12 | 1e+07 pM | 5.10 | Non-Toxic |  |  |  |  |  |  |  |  |  |  | Active | 2 |  |  |
| CCc1cc(C2C3=C(CCCC3=O)OC3=C2C(=O)CCC3)cc2cc(C(=O)c3ccc(F)cc3)oc12 | 10000 pM | 8.12 | Non-Toxic |  |  |  |  |  |  |  |  |  |  |  |  | Active | 2 |

Reference: ChEMBL document CHEMBL4270542, “Synthesis and study of benzofuran-pyran analogs as BMP-2 targeted osteogenic agents” (Eur J Med Chem, 2018)
